Data set [1] has as its system coronary artery / renal artery. The experiment in a line: Safety coefficient (margin of safety from renal blood flow reduction and coronary artery blood flow increase). Also noted: species or system mongrel dogs. The text has this: As described above, the 2-alkynyladenosine, which is the active ingredient of the drug of the present invention, has a remarkable platelet aggregation inhibitory effect, blood flow increasing effect of various blood vessels (coronary artery and vertebral artery) and brain protecting effect in combination. […] To describe in more detail, the 2-alkynyladenosine, which is the active ingredient of the present drug, has an extremely high ratio of the primary effects such as platelet aggregation inhibitory effect, blood flow increasing effect of various blood vessels, and brain protecting effect to the side-effects such as atrioventricular block appearance ratio and renal blood flow reduction effect, that is, the 2-alkynyladenosine has an extremely broad margin of safety as compared to the prior compounds. For example, the margins of safety (coefficients) of the 2-alkynyladenosine calculated on the basis of the results in TABLE 2 and TABLE 4 by taking an example of coronary artery blood flow increasing effect as the primary effect and renal blood flow reduction effect as the side-effect are as shown below in TABLE 5. From TABLE 5, it can be understood that the 2-alkynyladenosine is a compound having a broader margin of safety as compared with adenosine.

In a further data set the test system is platelet aggregation. The experiment in a line: Platelet aggregation inhibitory effect (ADP-induced aggregation of washed platelets). It is filed as cell-based, Nippon white rabbits. The following applies: Oryctolagus cuniculus, washed rabbit platelets, 10 μM adenosine 5'-diphosphate, drug added 3 min before. On the procedure: Male Nippon white rabbits weighing 2.0 to 2.5 kg were used. […] Next, centrifugation was carried out at 140×g for 15 minutes, and the supernatant (platelet-enriched plasma: PRP) was collected. The PRP was centrifuged at 1300×g for 7 minutes. The platelet pellets obtained were washed with a HEPES buffer for platelet washing (pH 6.5) and centrifuged at 1300×g for 7 minutes. […] For assaying platelet aggregation ability, an aggregometer was used, and 10 μl of a test drug was added to 380 μl of the platelet suspension. Three minutes later, 10 μl of a platelet aggregating substance (10 μM adenosine 5'-diphosphate at a final concentration) was added thereto to induce aggregation. […]

Data set [2] relates to atrioventricular conduction. The experiment in a line: Effect on atrioventricular conduction (atrioventricular block appearance ratio). The class given is in vivo, guinea pigs. The following applies: for Atrioventricular Block Appearance Ratio (Number of Animals Showing Appearance/Number of Animals Used): guinea pigs, second degree block, after intravenous 300 μg/kg. On the procedure:
Each of male guinea pigs weighing 360 to 600 g, after being anesthetized by intraperitoneal administration of 1.4 g/kg of urethane, was fixed on the back, and the trachea was cut open for ensuring airway, a polyethylene tube being inserted thereinto. The blood pressure was measured through a carrier amplifier by connecting the cannula inserted into the left common carotid artery to a pressure transducer. The electrocardiogram was recorded by means of a bioelectric amplifier according to the second induction method, and the PQ interval was measured from the electrocardiogram. The test drug was administered through the left femoral vein, and the presence or absence of appearance of atrioventricular block is represented by the appearance ratio of the second degree of atrioventricular block (number of animals showing appearance/number of animals used) by the test drug administration.

For a further data set, the system named is coronary artery. The experiment in a line: Coronary artery blood flow increasing effect. The class given is in vivo, mongrel dogs. Conditions: Canis lupus familiaris; anesthetized dogs, intraarterial into coronary artery; 100% = reactive hyperemia after 15 s occlusion. On the procedure:
Adult mongrel dogs weighing 9 to 15 kg were anesthetized with pentobarbital sodium, and the chest of each was opened under artificial respiration. After pericardium excision, the left anterior descending coronary artery was peeled off from the surrounding tissues, a probe for blood flow measurement was set under heparin sodium treatment, and the coronary blood flow was measured by the use of an electromagnetic blood flow meter.
The test drug was injected intraarterially into the coronary artery.

A further data set relates to vertebral artery. Description: Vertebral artery blood flow increasing effect. The class given is in vivo, mongrel dogs. Conditions: Canis lupus familiaris; anesthetized dogs, intraarterial into vertebral artery; 100% = increase by 100 μg/kg papaverine hydrochloride. On the procedure:
The chests of female and male adult mongrel dogs weighing 8 to 13 kg, under anesthesia by intravenous administration of pentobarbital sodium, were opened under artificial respiration along the median line to expose the left vertebral artery.
The test drug was injected intraarterially into the vertebral artery.

A short description of data set [3]: Effect on renal blood flow (renal blood flow reduction effect). Conditions: dog, in vivo.
Method: (§2) Female and male adult mongrel dogs weighing 10 to 15 kg were used. After each dog was anesthetized by intravenous administration of 30 mg/kg of pentobarbital sodium, it was fixed on the back, and the left lower abdominal portion was cut open under artificial respiration to expose the left renal artery. Under heparin sodium treatment, a polyethylene cannula was inserted into the renal artery, and at the other end of the cannula was set a probe for blood flow measurement. Self-perfusion was effected by means of a tube for blood perfusion led from the left femoral artery and connected to the probe, and the renal artery blood flow was measured by means of an electromagnetic blood flow meter.
(§3) The test drug was injected intraarterially into the renal artery.
For data set [4], the system named is ICR mice. The experiment in a line: Brain protecting effect: normobaric hypoxia method. The class given is in vivo. Conditions: 30 min before 96% N2/4% O2, (±S.E.), control 126.8 ±10.7. On the procedure: When the brain falls into hypoxia by cerebral circulatory disorder, its function will be rapidly and irreversibly lost. Accordingly, the pharmacological activities of the drugs were evaluated with the extension time relative to the survival time of the test animals under hypoxia or anoxia induced by changing gas phase components or by a drug.
Evaluation of the pharmacological activity by the normobaric hypoxia method was conducted by following the method of Yasuda et al. (Arch. Int. Pharmacodyn, 233, 136-144 (1978)) as described below.
Animals used were 8 to 11 male ICR mice of 7 weeks age (Clea Japan) per group.
The mice were placed in a desiccator made of glass, and hypoxia was induced by passing a gas mixture of 96% N2 and 4% O2 at a flow rate of 5 liters/min. The time after the passing of the gas into the desiccator to the respiration arrest of each mouse was measured and defined as the survival time.
The test drug was administered intraperitoneally 30 minutes before the initiation of gas passing. The average survival times for the control group and the group to which the test drug was administered were calculated.
The test drug was suspended in a physiological saline containing 0.5% CMC (carboxymethyl cellulose), and the dosage was 0.1 ml per 10 g of body weight. To the mice of the control group was administered 0.5% of the CMC physiological saline in the same manner. The statistical analysis was conducted according to the student's t-test.

Data set [5] deals with ICR mice. Description: Brain protecting effect: potassium cyanide (KCN)-induced anoxia method. The class given is in vivo. The following applies: 30 min before 2.5 mg/kg KCN, (±S.E.), * P < 0.05.
A short description of a further data set: in vivo. The following applies: dog.
Another data set relates to Slc:ICR mice. Description: Acute toxicity. Conditions: mouse, in vivo, po, 1000 mg/kg. On the procedure:
(§1) By the use of Slc:ICR mice (7 to 8 weeks old), the acute toxicity tests of Compound 4 (n=5) and Compound 12 (n=13) were conducted.

A further data set can be described thus: Acute toxicity. The following applies: mouse, in vivo; mice, oral administration, estimated. On the procedure: as §1

Bounds are passed on as bounds.

Here are results for six molecules from patent US5270304A, “Therapeutic 2-alkynyl adenosine agent for ischemic diseases of the heart or brain” (priority 1988, dated 1993).

Method for in vivo: as §2, §3

On to `Nc1ncnc2c1ncn2[C@@H]1O[C@H](CO)[C@@H](O)[C@H]1O` [Adenosine], for which, in data set [1] (from TABLE 2 coronary artery blood flow increasing effect and TABLE 4 renal blood flow reduction effect), the “Safety Coefficient” value worked out at 2. For the same molecule, the IC50 in the data set with platelet aggregation was determined as 3200 nM. In addition, the “Atrioventricular Block Appearance Ratio (Number of Animals Showing Appearance/Number of Animals Used)” value in data set [2] was 6/6. The 50% effective dose (ED50) was found to be 0.0001 mg/kg in the data set with coronary artery, 0.00052 mg/kg in the data set with vertebral artery and 0.0002 mg/kg in data set [3].
`CCCCC#Cc1nc(N)c2ncn([C@@H]3O[C@H](CO)[C@@H](O)[C@H]3O)c2n1` [Compound 2, 2-hexynyladenosine]: in data set [1] (dog, in vivo), the “Safety Coefficient” value amounted to 75. This molecule had an IC50 in the data set on platelet aggregation of 61 nM. For the same molecule, in [2] (300 μg/kg intravenous), the “atrioventricular block appearance ratio compared with adenosine” value was “same atrioventricular block appearance ratio as that of adenosine”. The “Atrioventricular Block Appearance Ratio (Number of Animals Showing Appearance/Number of Animals Used)” value in data set [2] was 6/6. Further, the “Average Survival Time, Normobaric Hypoxia Method” value in the data set with ICR mice [4] (0.1 mg/kg i.p.) is listed as 171.9 (±22.1) sec; in the data set with ICR mice [4] (0.3 mg/kg i.p.), 169.2 (±23.5) sec; in the data set with ICR mice [4] (1.0 mg/kg i.p., ** P < 0.01), 217.3 (±26.2) sec. Moreover, the ED50 stood at 0.00014 mg/kg in the data set on vertebral artery and 0.00015 mg/kg in the data set “in vivo”. In the data set with ICR mice [5] (1.0 mg/kg i.p., control (1) 39.8 (±2.4)), the “Average Survival Time, Potassium Cyanide Induced Anoxia Method” value is 50.05 (±3.8) sec.
For `CCCCCCC#Cc1nc(N)c2ncn([C@@H]3O[C@H](CO)[C@@H](O)[C@H]3O)c2n1` [Compound 4, 2-octynyladenosine], in data set [1] (dog, in vivo), the “Safety Coefficient” value is given as more than 375. This molecule also came in with an IC50 in the data set on platelet aggregation of 140 nM. In addition, the “Atrioventricular Block Appearance Ratio (Number of Animals Showing Appearance/Number of Animals Used)” value in data set [2] is 1/6. Besides, the lethal cases entry in the data set on Slc:ICR mice is recorded as “no lethal case was recognized”. In the data set “Acute toxicity”, the LD50 was not below 1000 mg/kg. Further, the “Average Survival Time, Normobaric Hypoxia Method” value in the data set on ICR mice [4] (0.3 mg/kg i.p.) is 128.7 (±4.8) sec; in the data set with ICR mice [4] (1.0 mg/kg i.p., ** P < 0.01), 222.9 (±25.9) sec; in the data set with ICR mice [4] (3.0 mg/kg i.p., ** P < 0.01) it was 230.6 (±26.7) sec. In addition, the results for the ED50 with vertebral artery and in the data set “in vivo” were 0.0004 mg/kg and more than 0.003 mg/kg, respectively.
`CCCCCCCC#Cc1nc(N)c2ncn([C@@H]3O[C@H](CO)[C@@H](O)[C@H]3O)c2n1` [Compound 5]: the “Safety Coefficient” value in data set [1] (dog, in vivo) is reported as more than 40. In the data set with platelet aggregation, this molecule returned an IC50 of 210 nM. Further, in data set [2], the “Atrioventricular Block Appearance Ratio (Number of Animals Showing Appearance/Number of Animals Used)” value is 0/6. In addition, the ED50 in the data set with vertebral artery was 0.0012 mg/kg; in the data set “in vivo”, more than 0.003 mg/kg.
In the case of `CCCCCCCCC#Cc1nc(N)c2ncn([C@@H]3O[C@H](CO)[C@@H](O)[C@H]3O)c2n1` [Compound 6], the “Safety Coefficient” value in data set [1] (dog, in vivo) was more than 20. This molecule also displayed an IC50 in the data set on platelet aggregation of 720 nM. The “Atrioventricular Block Appearance Ratio (Number of Animals Showing Appearance/Number of Animals Used)” value in data set [2] is on record as 1/6. The ED50 was 0.00015 mg/kg with coronary artery, more than 0.003 mg/kg in the data set on vertebral artery and more than 0.003 mg/kg in “in vivo”.
Turning to `CCCCCCCCCCCCCCC#Cc1nc(N)c2ncn([C@@H]3O[C@H](CO)[C@@H](O)[C@H]3O)c2n1` [Compound 12, 2-hexadecynyladenosine], the “Safety Coefficient” value in data set [1] (dog, in vivo) is reported as 30. This molecule came in with an IC50 with platelet aggregation of more than 3100 nM. The “Atrioventricular Block Appearance Ratio (Number of Animals Showing Appearance/Number of Animals Used)” value in [2] is 0/6. The lethal cases result in the data set with Slc:ICR mice was “no lethal case was recognized”. Moreover, the LD50 in “Acute toxicity” is not below 1000 mg/kg. Further, the ED50 in the data set with coronary artery is more than 0.0001 mg/kg; with vertebral artery it was more than 0.003 mg/kg; in “in vivo”, more than 0.003 mg/kg. Also, the “Average Survival Time, Potassium Cyanide Induced Anoxia Method” value in the data set with ICR mice [5] (30 mg/kg i.p., control (2) 41.8 (±1.9)) is given as 76.7 (±11.7) sec.

A word on the IC50: it is the concentration needed to halve the response being measured. The term ED50 denotes the midpoint of the dose-response relation. A low value points to an effect at a small dose. Broadly, the LD50 is the dose expected to kill half of the subjects tested.
